Where two headings read alike, the source gives them in different places.
Assays:
[1] = system: human melanoma xenographt; assay: M.T.T. assay in vitro, human melanoma; type: cell-based
Experimental: (§1) The antitumor activity of compounds of the present invention was evaluated by "in vitro" M.T.T. assay (T. Mosmann, J. Immunol. Meth. 65 : 55-63, 1983) on human tumor cell lines. M.T.T. assay was chosen according to N.C.I. screening program for new anticancer drugs (Ad hoc review committee proceedings for N.C.I. "in vitro"--"in vivo" Disease oriented Screening project. N.I.H., Bethesda, Md. Dec.8-9, 1986).

[2] = system: human colon adenocarcinoma; assay: M.T.T. assay in vitro, human colon adenocarcinoma; type: cell-based; settings: human colon adenocarcinoma xenographt, read-out: ID50 (the source's name)
Experimental: as §1

[3] = system: human cervix epithelioid carcinoma cell line; assay: M.T.T. assay in vitro, human cervix epithelioid carcinoma; type: cell-based
Experimental: as §1
Against the same human cervix epithelioid carcinoma cell line the compounds (1) and (2) show ID50 of 1×10^-9 M and 2×10^-10 M, respectively.

[4] = human, in vivo; cited from earlier work
[5] = intraperitoneal, non-tumor bearing animals; cited from earlier work
[6] = human melanoma xenographt, M.T.T. assay, read-out: ID50 (the source's name)
[7] = human cervix epithelioid carcinoma, in vitro, read-out: ID50 (the source's name)
[8] = human cervix epithelioid carcinoma

IC50 [1, 6] [nM] | IC50 [2] [nM] | IC50 [3, 7] [nM] | SMILES | cardiotoxicity [4] | further results
0.1 | 1 | 0.2 | CN(C)CCNc1nnc(N)c2c1C(=O)c1ccccc1C2=O [Compound 2, 1-[N-(2-dimethylaminoethyl)amino]-4-amino-2,3-diaza-anthracene9,10-dione] | – | –
2 | – | – | O=C1c2ccccc2C(=O)c2c(NCCCO)nnc(NCCCO)c21 [Compound 3, 1,4-bis[N-(3-hydroxypropyl)amino]-2,3-diaza-anthracene-9,10-dione] | – | –
1 | – | – | Nc1nnc(NCCCO)c2c1C(=O)c1ccccc1C2=O [Compound 4, 1-[N-(3-hydroxypropyl)amino]-4-amino-2,3-diaza-anthracene-9,10-dione] | – | –
– | – | 3 | Nc1nnc(NCCNCCO)c2c1C(=O)c1ccccc1C2=O [Compound 5, 1-[N-(2-(2-hydroxyethylamino)ethyl)amino]-4-amino-2,3-diaza-anthracene-9,10-dione] | – | activity compared with ametantrone [3, 8]: definitely more active than ametantrone; activity compared with mitoxantrone [3, 8]: as active as mitoxantrone

More lines, now with the values behind:

SMILES | IC50 [1, 6] [nM] | IC50 [2] [nM] | IC50 [3, 7] [nM] | cardiotoxicity [4] | further results
OCCCNc1nnc(NCCCO)c2cc3ccccc3cc12 [1,4-bis[N-(3-hydroxypropyl)amino]-2,3-diaza-anthracene] | 500000 | – | – | – | –
CN(C)CCNc1nnc(NCCN(C)C)c2c1C(=O)c1ccccc1C2=O [Compound 1, 1,4-bis[N-(2-dimethylaminoethyl)amino]-2,3-diaza-anthracene-9,10-dione] | 1 | 10 | 1 | – | –
O=C1c2ccccc2C(=O)c2c(NCCNCCO)ccc(NCCNCCO)c21 [ametantrone, 1,4-bis[(2-(2-hydroxyethylamino)ethyl)amino]anthracene-9,10-dione] | – | – | – | some cardiotoxicity | IC50 ([1]; Homo sapiens, read-out: ID50): 20000 nM; IC50 ([3]; Homo sapiens, read-out: ID50): 50000 nM; delayed lethality [5]: not observed
COc1cccc2c1C(=O)c1c(O)c3c(c(O)c1C2=O)C[C@@](O)(C(=O)CO)C[C@@H]3O[C@H]1C[C@H](N)[C@H](O)[C@H](C)O1 [doxorubicin] | – | – | – | severe dose-related cardiotoxicity | toxic side effects [4]: nausea, vomiting and alopecia
O=C1c2c(O)ccc(O)c2C(=O)c2c(NCCNCCO)ccc(NCCNCCO)c21 [mitoxantrone, 5,8-dihydroxy-1,4-bis[(2-(2-hydroxyethylamino)ethyl)amino]anthracene-9,10-dione] | 1 | 100 | 5 | some clinical cardiotoxicity | major hematological toxicities [4]: leukopenia, neutropenia and bone marrow aplasia; toxic side effects [4]: by far lower than those resulting from doxorubicin; delayed lethality [5]: a delayed lethality

Source: patent publication US5162320A, “1,4-bis(alkylamino)-2,3-diaza-anthracene-9,10-diones” (Boehringer Biochemia Robin S.p.A., priority 1989, dated 1992)
